Measurements as given in patent publication US11045411B2, “Process for treating keratin materials using amide, acid or ester c-glycoside derivatives, and cosmetic composition containing same” (L'OREAL, priority 2015, dated 2021).
Where “and” joins values, the source holds several entries; their conditions need not be identical. Equal values may be shown once.

Tests used:
GLUT-1 = GLUT-1 expression in normal human keratinocytes by immuno labeling; type: cell-based; conditions: for GLUT-1 expression vs 100% control: 48 hours, n=3; for expression of the GLUT-1 protein: result in words
Experimental: Normal human keratinocytes (NHKs) were seeded and cultured in culture medium for 24 hours and then in test medium for a further 24 hours. After incubation, the medium was replaced with test medium containing or not containing (control) the test compounds or the references, and then the cells were incubated for 48 hours. All the experimental conditions were performed in n=3. After incubation, the culture medium was removed and the cells were rinsed, fixed and permeabilized. GLUT-1 expression was determined by immuno labeling.

[1] = tested on: normal human epidermal keratinocytes; assay: Synthesis of total glycosaminoglycans, [3H]-glucosamine incorporation in normal human epidermal keratinocytes; type: cell-based; conditions: for % relative to control, glucosamine incorporation / Mean value, radioactive glucosamine incorporated: 72 hours; for incorporation of radioactive glucosamine: result in words
Experimental: The study is carried out by measuring the incorporation of radioactive glucosamine into the matrix neosynthesized by cultures of normal human epidermal keratinocytes. The incorporation of radioactive [^3H]-glucosamine indicates a specific neosynthesis of total glycosaminoglycans.
The test is carried out on a culture of normal human epidermal keratinocytes in a 96-well plate and cultured in culture medium for 24 hours:
Culture medium: Keratinocytes-SFM supplemented with 0.5 ng/ml epidermal growth factor (EGF), 25 μg/ml pituitary extract, 25 μg/ml gentamycin.
Culture conditions: 37° C.; 5% CO2
The medium was then replaced with culture medium containing or not containing (control) the compound (I) tested or the references 4-nitrophenyl-B-D-xylopyranoside (tested at 300 μM) and 4-methylumbelliferyl-B-D-xylopyranoside (tested at 54 μM) or the solvent control (DMSO at 0.1%), then the cells were incubated for 72 hours with addition of the [^3H]-glucosamine label for the final 24 hours of incubation.
The test was carried out with 3 assays for each compound tested, at the concentrations of 1, 10, 100 and 300 μM.
At the end of the incubation, the glycosaminoglycans were extracted from the cells with a chaotropic buffer. The level of radioactive glucosamine incorporated is measured at the end of the test by adsorption of the anionic molecules on Q-sepharose beads, followed by desorption of the molecules having low and medium anionicity with 6M urea plus 0.2 M NaCl. Once washed, the radioactivity incorporated into the very […] molecules remaining on the support is counted.
The results were evaluated relative to a control constituted of cells which had not been treated with the compound (I).
A positive control (TGFβ at 0.25 ng/ml) known to stimulate GAG synthesis was introduced into the test carried as a positive reference.

SMILES | GLUT-1 expression vs 100% control (GLUT-1; compound at 10 μM) | expression of the GLUT-1 protein (GLUT-1) | % relative to control, glucosamine incorporation ([1]; 1 μM) [%] | Mean value, radioactive glucosamine incorporated ([1]; 1 μM) [cpm] | % relative to control, glucosamine incorporation ([1]; 10 μM) [%] | Mean value, radioactive glucosamine incorporated ([1]; 10 μM) [cpm] | % relative to control, glucosamine incorporation ([1]; 100 μM) [%] | Mean value, radioactive glucosamine incorporated ([1]; 100 μM) [cpm] | % relative to control, glucosamine incorporation ([1]; 300 μM) [%] | Mean value, radioactive glucosamine incorporated ([1]; 300 μM) [cpm] | incorporation of radioactive glucosamine ([1]; concentration of 1 μM) | incorporation of radioactive glucosamine ([1]; concentration of 10 μM) | incorporation of radioactive glucosamine ([1]; concentration of 100 μM) | incorporation of radioactive glucosamine ([1]; concentration of 300 μM) | GLUT-1 expression vs 100% control (GLUT-1; Reference 2 mM metformine) | % relative to control, glucosamine incorporation ([1]; 54 μM) [%] | Mean value, radioactive glucosamine incorporated ([1]; 54 μM) [cpm]
CCCCCCCCCCCCCCNC(=O)C(O)C1O[C@H](CO)[C@@H](O)[C@H](O)[C@H]1O (stereo partly shown) [Compound 4] | 142% (p < 0.01) | very significantly stimulated |  |  |  |  |  |  |  |  |  |  |  |  |  |  | 
CNC(=O)C(O)C1O[C@H](CO)[C@H](O)[C@H](O)[C@H]1O (stereo partly shown) [Compound 17] |  |  | 129 | 17387 | 123 | 16614 | 132 | 17861 | 108 | 14498 | stimulates the incorporation of radioactive glucosamine | stimulates the incorporation of radioactive glucosamine | stimulates the incorporation of radioactive glucosamine |  |  |  | 
CNC(=O)C(O)C1O[C@@H](C)[C@H](O)[C@@H](O)[C@H]1O (stereo partly shown) [Compound 9] |  |  | 120 | 16162 | 114 | 15439 | 131 | 17655 | 169 | 22845 |  |  |  | stimulates the incorporation of radioactive glucosamine |  |  | 
O=[N+]([O-])c1ccc(O[C@@H]2OC[C@@H](O)[C@H](O)[C@H]2O)cc1 [4-nitrophenyl β-D-xylopyranoside, 4-nitrophenyl-B-D-xylopyranoside, reference compound] |  |  |  |  |  |  |  |  | 207 | 31280 |  |  |  |  |  |  | 
CNC(=O)C(O)C1OC[C@@H](O)[C@H](O)[C@H]1O (stereo partly shown) [Compound 5] |  |  | 134 | 17792 | 121 | 16133 | 119 | 15835 | 116 | 15495 | stimulate the incorporation of radioactive glucosamine |  |  |  |  |  | 
CNC(=O)C(O)C1O[C@H](CO)[C@@H](O)[C@H](O)[C@@H]1O (stereo partly shown) [Compound 13] |  |  | 119 | 16090 | 129 | 17340 | 134 | 18139 | 139 | 18804 |  | stimulate the incorporation of radioactive glucosamine |  |  |  |  | 
CNC(=O)C(O)C1O[C@H](CO)[C@@H](OC2O[C@H](CO)[C@H](O)[C@H](O)[C@H]2O)[C@H](O)[C@H]1O (stereo partly shown) [Compound 21] |  |  | 142 | 18416 | 136 | 17611 | 137 | 17796 | 134 | 17429 | stimulates the incorporation of radioactive glucosamine | stimulates the incorporation of radioactive glucosamine |  | stimulates the incorporation of radioactive glucosamine |  |  | 
CNC(=O)C(O)C1O[C@H](CO)[C@@H](O)[C@H](O)[C@H]1O (stereo partly shown) [Compound 1] | 159% (p < 0.05) | very significantly stimulated | 125 | 21591 | 117 | 20216 | 118 | 20451 | 97 | 16850 | stimulate the incorporation of radioactive glucosamine |  |  |  |  |  | 
CN(C)C(=N)N=C(N)N [metformine, reference compound] |  |  |  |  |  |  |  |  |  |  |  |  |  |  | 252% (p < 0.01) and 296% (p < 0.001) |  | 
Cc1cc(=O)oc2cc(O[C@@H]3OC[C@@H](O)[C@H](O)[C@H]3O)ccc12 [4-methylumbelliferyl-β-D-xylopyranoside, 4-methylumbelliferyl-B-D-xylopyranoside, reference compound] |  |  |  |  |  |  |  |  |  |  |  |  |  |  |  | 213 | 32202
CCCNC(=O)C(O)C1O[C@H](CO)[C@@H](O)[C@H](O)[C@H]1O (stereo partly shown) [Compound 2] |  |  | 110 | 14638 | 126 | 16779 | 123 | 16435 | 127 | 16929 |  | stimulate the incorporation of radioactive glucosamine |  |  |  |  | 
